Like-named read-outs stand apart in the source and are kept apart here.
What was measured:
Plasmopara viticola = test: Activity against Peronospora of grapevines caused by Plasmopara viticola; details: vines cultivar Riesling, protective spray
Procedure: (§1) 1% by weight of the emulsifier Uniperol® EL (wetting agent having emulsifying and dispersant action based on ethoxylated alkylphenols) was added to this solution, and the mixture was diluted with water to the desired concentration.
(§2) Evaluation is carried out by determining the infected leaf areas in percent. These percentages were converted into efficacies.
(§3) The efficacy (E) is calculated as follows using Abbot's formula:
(§4) α corresponds to the fungicidal infection of the treated plants in % and β corresponds to the fungicidal infection of the untreated (control) plants in %
(§5) An efficacy of 0 means that the infection level of the treated plants corresponds to that of the untreated control plants; an efficacy of 100 means that the treated plants are not infected.
The next day, the undersides of the leaves were inoculated with an aqueous zoospore suspension of Plasmopara viticola. The grapevines were then initially placed in a water-vapor-saturated chamber at 24° C. for 48 hours and then in a greenhouse at 20-30° C. for 5 days. After this period of time, the plants were again placed in a humid chamber for 16 hours to promote sporangiophore eruption. The extent of the development of the disease on the undersides of the leaves was then determined visually.

Corticium sasakii = details: rice cultivar Tai-Nong 67, protective spray, evaluated after 11 days
Procedure: as §1, §2, §3, §4, §5
The next day, oat grains infected with Corticium sasakii were placed into the pots (in each case 5 grains per pot). The plants were then placed in a chamber at 26° C. and maximum atmospheric humidity.

SMILES	Efficacy in % of the untreated control (Plasmopara viticola; 4 ppm in the spray liquor)	Efficacy in % of the untreated control (Plasmopara viticola; 16 ppm in the spray liquor)	Efficacy in % of the untreated control (Corticium sasakii; 1 ppm in the spray liquor)	Efficacy in % of the untreated control (Corticium sasakii; 16 ppm in the spray liquor)	Efficacy in % of the untreated control (Corticium sasakii; 4 ppm in the spray liquor)
CO/N=C(/C1=NOCCO1)c1ccccc1Oc1ncnc(Oc2ccccc2Cl)c1F [II (fluoxastrobin), {2-[6-(2-chlorophenoxy)-5-fluoropyrimidin-4-yloxy]phenyl}-(5,6-dihydro-[1,4,2]dioxazin-3-yl)methanon O-methyl oxime]	21%	55%	0%	18%	
CC1CCN(c2c(-c3c(F)cc(F)cc3F)c(Cl)nc3ncnn23)CC1 [I, 5-chloro-7-(4-methylpiperidin-1-yl)-6-(2,4,6-trifluorophenyl)-[1,2,4]triazolo[1,5-a]pyrimidine]	21%	44%			30%

Source: patent publication US20080064692A1
